One assay relates to foxtail, giant. Kind of assay: Test E preemergence herbicide test. The format is in vivo, Setaria faberii. Also on record: key: 0 = no effect, 100 = complete control. The source says: (§1) Seeds of plant species selected from corn (Zea mays), soybean (Glycine max), velvetleaf (Abutilon theophrasti), lambsquarters (Chenopodium album), wild poinsettia (Euphorbia heterophylla), pigweed, palmer (palmer pigweed, Amaranthus palmeri), waterhemp (common waterhemp, Amaranthus rudis), surinam grass (Brachiaria decumbens), crabgrass, large (large crabgrass, Digitaria sanguinalis), crabgrass, Brazil (Brazilian crabgrass, Digitaria horizontalis), panicum, fall (fall panicum, Panicum dichotomiflorum), foxtail, giant (giant foxtail, Setaria faberii), foxtail, green (green foxtail, Setaria viridis), goosegrass (Eleusine indica), johnsongrass (Sorghum halepense), ragweed (common ragweed, Ambrosia elatior), barnyardgrass (Echinochloa crus-galli), sandbur (southern sandbur, Cenchrus echinatus), arrowleaf […] rhombifolia), ryegrass, Italian (Italian ryegrass, Lolium multiflorum), dayflower, VA (Virginia dayflower, Commelina virginica), field bindweed (Convolvulus arvensis), morningglory (Ipomoea coccinea), nightshade (eastern black nightshade, Solanum ptycanthum), kochia (Kochia scoparia), nutsedge, yellow (yellow nutsedge, Cyperus esculentus), cocklebur (common cocklebur, Xanthium strumarium), smartweed (ladysthumb smartweed, Polygonum Persicaria) and beggarticks (hairy beggarticks, Bidens pilosa), were planted into a silt loam soil and treated preemergence with test chemicals formulated in a non-phytotoxic solvent mixture which included a surfactant. Treated plants and controls were maintained in a greenhouse for 21 days, after which time all species were compared to controls and visually evaluated. Plant response ratings, summarized in Table E, are based on a scale of 0 to 100 where 0 is no effect and 100 is complete control. A dash (-) response means no test result.

A further assay has as its system crabgrass, Brazil. Kind of assay: Test E preemergence herbicide test. In kind it is in vivo, Digitaria horizontalis. Also on record: key: 0 = no effect, 100 = complete control.
Description: as §1

The test system of the next assay is velvetleaf. The experiment in a line: Test E preemergence herbicide test. In kind it is in vivo, Abutilon theophrasti. Also on record: key: 0 = no effect, 100 = complete control.
Description: as §1

Another assay has as its system nutsedge, yellow. The experiment in a line: Test E preemergence herbicide test. Also on record: key: 0 = no effect, 100 = complete control. In kind it is in vivo, Cyperus esculentus.
Description: as §1

The subject of another assay is sunflower. The experiment in a line: Test C pre-/postemergence herbicide test. In kind it is in vivo, Helianthus annuus. The note with it: Preemergence. The source says:
(§2) Seeds of plant species selected from blackgrass (Alopecurus myosuroides), ryegrass, Italian (Italian ryegrass, Lolium multiflorum), wheat (winter wheat, Triticum aestivum), galium (catchweed bedstraw, Galium aparine), corn (Zea mays), crabgrass, large (large crabgrass, Digitaria sanguinalis), foxtail, giant (giant foxtail, Setaria faberii), johnsongrass (Sorghum halepense), lambsquarters (Chenopodium album), morningglory (Ipomoea coccinea), nutsedge, yellow (yellow nutsedge, Cyperus esculentus), pigweed (Amaranthus retroflexus), ragweed (common ragweed, Ambrosia elatior), soybean (Glycine max), barnyardgrass (Echinochloa crus-galli), oilseed rape (Brassica napus), waterhemp (common waterhemp, Amaranthus rudis), kochia (Kochia scoparia), oat, wild (wild oat, Avena fatua), surinam grass (Brachiaria decumbens), foxtail, green (green foxtail, Setaria viridis), goosegrass (Eleusine indica), bromegrass, downy (downy bromegrass, Bromus tectorum), nightshade (eastern black nightshade, Solanum ptycanthum), cocklebur (common cocklebur, Xanthium strumarium), cupgrass, woolly (woolly cupgrass, Eriochloa villosa), bermudagrass (Cynodon dactylon), sunflower, (common oilseed sunflower, Helianthus annuus), Russian thistle (Salsola kali) and velvetleaf (Abutilon theophrasti) were planted into a blend of loam soil and sand and treated preemergence with test chemicals formulated in a non-phytotoxic solvent mixture which included a surfactant. At the same time, plants selected from these crop and weed species and also barley (winter barley, Hordeum vulgare), […]), chickweed (common chickweed, Stellaria media), deadnettle (henbit deadnettle, Lamium amplexicaule), and canarygrass (littleseed canarygrass, Phalaris minor) were planted in pots containing Redi-Earth® planting medium (Scotts Company, 14111 Scottslawn Road, Marysville, Ohio 43041) comprising spaghnum peat moss, vermiculite, wetting agent and starter nutrients and treated with postemergence applications of test chemicals formulated in the same manner. Plants ranged in height from 2 to 18 cm (1- to 4-leaf stage) for postemergence treatments. Treated plants and controls were maintained in a greenhouse for 13 to 15 days, after which time all species were compared to controls and visually evaluated. Plant response ratings, summarized in Table C, are based on a scale of 0 to 100 where 0 is no effect and 100 is complete control. A dash (-) response means no test result.

In the next assay the test system is foxtail, green. Kind of assay: Test C pre-/postemergence herbicide test. In kind it is in vivo, Setaria viridis.
Description: as §2

In another assay the test system is goosegrass. Kind of assay: Test C pre-/postemergence herbicide test. In kind it is in vivo, Eleusine indica.
Description: as §2

Setting [1] is: Preemergence, 62 g ai/ha, scale 0 to 100.
[2] abbreviates: Preemergence, 125 g ai/ha, scale 0 to 100 (0 no effect, 100 complete control).
The mark [3] stands for this setting: Preemergence, 31 g ai/ha, scale 0 to 100 (0 no effect, 100 complete control).
Setting [4] is: Postemergence, 31 g ai/ha, scale 0 (no effect) to 100 (complete control).
The mark [5] stands for this setting: Postemergence, 62 g ai/ha, scale 0 to 100 (0 no effect, 100 complete control).
Setting [6] is: Postemergence, 125 g ai/ha, scale 0 to 100 (0 no effect, 100 complete control).
Setting [7] is: Postemergence, 250 g ai/ha, scale 0 to 100 (0 no effect, 100 complete control).

`O=C1NCC(c2ccc(C(F)(F)F)cc2)C1C(=O)Nc1cccc(F)c1F` (racemic) [Compound 202]: the “Plant response rating, Foxtail, Giant” value with foxtail, giant (31 g ai/ha) is listed as 35; in the assay with foxtail, giant (62 g ai/ha), 50; in the assay with foxtail, giant (125 g ai/ha), 95; in the assay on foxtail, giant (250 g ai/ha) it was 98. The “Plant response rating, Crabgrass, Brazil” value was 80 in the assay on crabgrass, Brazil (31 g ai/ha); 98 in the assay on crabgrass, Brazil (62 g ai/ha); 98 in the assay with crabgrass, Brazil (125 g ai/ha); 98 in the assay with crabgrass, Brazil (250 g ai/ha). The “Plant response rating, Velvetleaf” value in the assay with velvetleaf (31 g ai/ha) was 0; with velvetleaf (62 g ai/ha) it was 0; in the assay on velvetleaf (125 g ai/ha), 0; in the assay with velvetleaf (250 g ai/ha), 40. Besides, the “Plant response rating, Nutsedge, Yellow” value amounted to 0 in the assay on nutsedge, yellow (31 g ai/ha); 0 in the assay with nutsedge, yellow (62 g ai/ha); 0 in the assay on nutsedge, yellow (125 g ai/ha); 0 in the assay with nutsedge, yellow (250 g ai/ha).

For `O=C1NCC(c2ccc(OC(F)F)cc2)C1C(=O)Nc1cccc(F)c1F` (racemic) [Compound 350], the “Plant response rating, Foxtail, Giant” value in the assay with foxtail, giant (31 g ai/ha) was found to be 0; with foxtail, giant (62 g ai/ha) it was 20; in the assay on foxtail, giant (125 g ai/ha), 50; with foxtail, giant (250 g ai/ha), 80. For the same compound, the “Plant response rating, Crabgrass, Brazil” value with crabgrass, Brazil (31 g ai/ha) is on record as 0; in the assay on crabgrass, Brazil (62 g ai/ha), 75; in the assay on crabgrass, Brazil (125 g ai/ha), 95; in the assay with crabgrass, Brazil (250 g ai/ha) it was 98. Besides, the “Plant response rating, Velvetleaf” value in the assay with velvetleaf (31 g ai/ha), with velvetleaf (62 g ai/ha), with velvetleaf (125 g ai/ha) and in the assay on velvetleaf (250 g ai/ha) was 0 throughout. Also, the “Plant response rating, Nutsedge, Yellow” value with nutsedge, yellow (31 g ai/ha) is listed as 0; in the assay on nutsedge, yellow (62 g ai/ha), 0; in the assay on nutsedge, yellow (125 g ai/ha), 0; with nutsedge, yellow (250 g ai/ha), 15.

On to `O=C1NCCC1C(=O)N(c1ccc(F)c(F)c1)c1ccccc1F` (centres unmarked) [Compound 5, N-(3,4-difluorophenyl)-N-(2-fluorophenyl)-2-oxo-3-pyrrolidinecarboxamide], for which the “Plant response rating, Sunflower” value was 0 in the assay with sunflower (62 g ai/ha, scale 0 to 100) and 0 in the assay on sunflower (125 g ai/ha, scale 0 to 100 (0 no effect, 100 complete control)). Moreover, the “Plant response rating, Foxtail, Green” value in the assay with foxtail, green (setting [1]) was determined as 90; with foxtail, green (setting [2]) it was 90; with foxtail, green (Preemergence, 250 g ai/ha, scale 0 to 100 (0 no effect, 100 complete control)) it was 95. The “Foxtail, Green plant response rating” value in the assay on foxtail, green (setting [3]) worked out at 85. The “Plant response rating, Goosegrass” value in the assay on goosegrass (setting [1]) and in the assay with goosegrass (setting [2]) was 0 in each case. Moreover, the “Goosegrass plant response rating” value with goosegrass (setting [3]) came to 0.

With `O=C1NCC(c2cc(F)c(F)cc2F)C1C(=O)Nc1cccc(F)c1F` (centres unmarked) [Compound 50], the “Plant response rating, Foxtail, Green” value was found to be 0 with foxtail, green (setting [4]); 0 in the assay with foxtail, green (setting [5]); 0 with foxtail, green (setting [6]); 30 in the assay on foxtail, green (setting [7]). In addition, the “Plant response rating, Goosegrass” value in the assay on goosegrass (setting [4]), in the assay with goosegrass (setting [5]), with goosegrass (setting [6]) and in the assay on goosegrass (setting [7]) was 25 throughout.

With `O=C1NCC(c2ccc(C(F)(F)F)cc2)C1C(=O)Nc1cccc(F)c1F` (centres unmarked) [Compound 80, N-(2,3-difluorophenyl)-2-oxo-4-[4-(trifluoromethyl)phenyl]-3-pyrrolidinecarboxamide], the “Plant response rating, Foxtail, Giant” value in the assay on foxtail, giant (16 g ai/ha) came out at 0; with foxtail, giant (31 g ai/ha) it was 65; with foxtail, giant (62 g ai/ha), 75; in the assay on foxtail, giant (125 g ai/ha), 80; in the assay with foxtail, giant (250 g ai/ha), 90. For the same compound, the “Plant response rating, Crabgrass, Brazil” value stood at 70 with crabgrass, Brazil (125 g ai/ha) and 95 in the assay with crabgrass, Brazil (250 g ai/ha). For the same compound, the “Plant response rating, Velvetleaf” value in the assay with velvetleaf (16 g ai/ha), with velvetleaf (31 g ai/ha), in the assay on velvetleaf (62 g ai/ha), in the assay with velvetleaf (125 g ai/ha) and in the assay on velvetleaf (250 g ai/ha) was 0 in each case. In addition, the “Plant response rating, Nutsedge, Yellow” value in the assay with nutsedge, yellow (16 g ai/ha) stood at 0; with nutsedge, yellow (31 g ai/ha), 0; with nutsedge, yellow (62 g ai/ha), 0; in the assay with nutsedge, yellow (125 g ai/ha) it was 0; with nutsedge, yellow (250 g ai/ha) it was 0.

Turning to `O=C1NC[C@H](c2cccc(C(F)(F)F)c2)[C@H]1C(=O)Nc1ccccc1F` [Compound 204, (3R,4S)—N-(2-fluorophenyl)-2-oxo-4-[3-(trifluoromethyl)phenyl]-3-pyrrolidinecarboxamide], the “Plant response rating, Foxtail, Giant” value in the assay on foxtail, giant (31 g ai/ha) is on record as 50; in the assay on foxtail, giant (62 g ai/ha), 95; with foxtail, giant (125 g ai/ha), 95; with foxtail, giant (250 g ai/ha) it was 98. For the same compound, the “Plant response rating, Crabgrass, Brazil” value is reported as 95 in the assay with crabgrass, Brazil (31 g ai/ha); 95 in the assay with crabgrass, Brazil (62 g ai/ha); 98 in the assay with crabgrass, Brazil (125 g ai/ha); 98 in the assay on crabgrass, Brazil (250 g ai/ha). In addition, the “Plant response rating, Velvetleaf” value in the assay on velvetleaf (31 g ai/ha), with velvetleaf (62 g ai/ha), with velvetleaf (125 g ai/ha) and with velvetleaf (250 g ai/ha) was 0 each time. In addition, the “Plant response rating, Nutsedge, Yellow” value in the assay with nutsedge, yellow (31 g ai/ha) was 0; with nutsedge, yellow (62 g ai/ha), 0; in the assay on nutsedge, yellow (125 g ai/ha), 0; in the assay with nutsedge, yellow (250 g ai/ha) it was 0.

With `O=C1NC[C@H](c2cccc(C(F)(F)F)c2)[C@H]1C(=O)Nc1cccc(F)c1F` [Compound 206], the “Plant response rating, Foxtail, Giant” value was 90 in the assay with foxtail, giant (31 g ai/ha); 98 in the assay on foxtail, giant (62 g ai/ha); 98 with foxtail, giant (125 g ai/ha); 98 in the assay on foxtail, giant (250 g ai/ha). The “Plant response rating, Crabgrass, Brazil” value stood at 80 in the assay with crabgrass, Brazil (31 g ai/ha); 98 with crabgrass, Brazil (62 g ai/ha); 98 in the assay with crabgrass, Brazil (125 g ai/ha); 98 in the assay with crabgrass, Brazil (250 g ai/ha). In addition, the “Plant response rating, Velvetleaf” value in the assay with velvetleaf (31 g ai/ha) was 0; in the assay with velvetleaf (62 g ai/ha), 35; in the assay with velvetleaf (125 g ai/ha), 30; with velvetleaf (250 g ai/ha) it was 50. Besides, the “Plant response rating, Nutsedge, Yellow” value with nutsedge, yellow (31 g ai/ha) is listed as 15; in the assay with nutsedge, yellow (62 g ai/ha) it was 15; in the assay on nutsedge, yellow (125 g ai/ha), 20; in the assay with nutsedge, yellow (250 g ai/ha) it was 75.

The values above are taken from patent US10294202B2, “Pyrrolidinones as herbicides” (FMC Corporation, priority 2013, dated 2019).
